In patent publication US12097276B2, “Cosmetic composition comprising theasinensin A” (AMOREPACIFIC CORPORATION, priority 2018, dated 2024):

Assays:
[1] = Stability of the active ingredient in solubilized formulations (remaining titer by HPLC); assay type: physicochemical; conditions: stored at 25° C.
Experimental: The following experiment was conducted to investigate the stability of theasinensin A as an active ingredient.
First, a solubilized formulation comprising the theasinensin A prepared in Preparation Example (Example 1) and a solubilized formulation comprising EGCG (Comparative Example 1) were prepared with the following compositions.
Then, the titer of theasinensin A or EGCG remaining in the formulations of Example 1 and Comparative Example 1 was analyzed by high-performance liquid chromatography (HPLC) with 1-week intervals. Specifically, after storing 10 mL of each composition of Example 1 and Comparative Example 1 at 25° C. and sonicating the same with 1-week intervals after diluting 10 fold with methanol followed by filtering, the content was analyzed by HPLC.

[2] = DPPH radical-scavenging assay (antioxidant effect); conditions: 100 μM DPPH in ethanol, 37° C., 30 minutes
Experimental: For investigation of the antioxidant effect of theasinensin A, the effect of inhibiting 2,2-diphenyl-1-picrylhydrazyl (DPPH) was tested as follows.
The 2,2-diphenyl-1-picrylhydrazyl (DPPH, Sigma D9132) radical dissolved in an organic solvent has the maximum absorbance at 515 nm. Since an antioxidant substance scavenges the DPPH radical and turns it colorless, antioxidant effect can be compared by measuring the DPPH radical-scavenging activity of theasinensin A through DPPH assay.
First, theasinensin A (TSA) was dissolved in ethanol such that the concentration of the theasinensin A (TSA) was 0.3125, 0.625, 1.25, 2.5, 5 and 10 ppm, respectively. The solutions of different concentrations were added to a 96-well plate, 10 μL each. Then, after adding 190 μL of 100 μM DPPH completely dissolved in ethanol to each solution and storing at 37° C. for 30 minutes, absorbance was measured at 515 nm.
DPPH assay was conducted in the same manner for 0.625, 1.25, 2.5, 5 and 10 ppm of vitamin C (Vit.C) as positive control groups and a negative control group (N.T.) not treated with theasinensin A (TSA) or vitamin C (Vit.C).

[3] = system: matrix metalloproteinase-1 (MMP-1) expression in UVB-irradiated HS68 cells; test: Inhibition of MMP-1 expression in UVB-irradiated HS68 cells (ELISA); assay type: cell-based, human; conditions: 48 hours
Experimental: For investigation of the effect of reducing skin wrinkles and enhancing skin elasticity of theasinensin A, the effect of inhibiting the expression of matrix metalloproteinase-1 (MMP-1), which is a collagenase in the human body, was tested as follows.
First, a cell culture was prepared by treating UVB-irradiated HS68 cells (ATCC, Cat No CRL-1635) with the theasinensin A prepared in Preparation Example at 2.5, 5 or 10 ppm. After culturing HS68 cells (ATCC, Cat No CRL-1635) in a separate medium and adding phosphate-buffered saline (PBS) thereto after removing the medium, UVB was irradiated with an intensity of 30 mJ/cm^2. The UVB-irradiated cells were treated with the previously prepared theasinensin A-treated culture and cultured for 48 hours in an incubator. After recovering the culture, MMP-1 expression level was measured using a MMP-1 ELISA kit (Amersham, RPN2610).

[4] = system: melanin production in B16 cells; test: Inhibition of intra/extracellular melanin production in α-MSH-treated B16 cells; assay type: cell-based; conditions: 72 hours; for extracellular melanin content compared to the control group treated only with α-MSH / intracellular melanin content compared to the control group treated only with α-MSH: B16 cells, 200 nM α-MSH, 2.5, 5 or 10 ppm
Experimental: For investigation of the skin-brightening effect of theasinensin A, the effect of inhibiting intra/extracellular melanin production was tested as follows.
First, after treating B16 cells (ATCC, Cat No CRL-6475) with 200 nM of α-melanocyte-stimulating hormone (α-MSH) and with theasinensin A as an example of the present disclosure or EGCG as a comparative example at nontoxic concentrations of 10 ppm or lower (2.5, 5 or 10 ppm), the intracellular and extracellular melanin contents 72 hours after the treatment were measured by correcting to the protein contents, and represented as % of melanin contents with respect to a non-theasinensin A-treated control group.
The intracellular melanin content is shown in FIG. 5 (TSA) and FIG. 6 (EGCG), and the extracellular melanin content is shown in FIG. 7 (TSA) and FIG. 8 (EGCG).

[5] = about 4 weeks later, solubilized formulation with 0.02 wt % active (Example 1 / Comparative Example 1)

For O=C(O[C@@H]1Cc2c(O)cc(O)cc2O[C@@H]1c1cc(O)c(O)c(O)c1-c1c([C@H]2Oc3cc(O)cc(O)c3C[C@H]2OC(=O)c2cc(O)c(O)c(O)c2)cc(O)c(O)c1O)c1cc(O)c(O)c(O)c1 [theasinensin A], the “amount of active ingredient remaining in the solubilized formulation (of total amount used)” value (from here on “amount of active ingredient remaining”) [1, 5] was at least 87 wt %, the “concentration at which DPPH activity was inhibited significantly” value [2] was at least 0.3 ppm and the “IC50 of DPPH activity inhibition” value ([2]; absorbance at 515 nm) was 5.9 ppm. The “inhibition of MMP-1 expression” value ([3]; UVB-irradiated (30 mJ/cm^2) HS68 cells, 2.5, 5 or 10 ppm, concentration-dependent) was at least 50%, the “concentration at which MMP-1 expression level was inhibited significantly” value ([3]; UVB-irradiated HS68 cells) was at least 2.5 ppm and the “extracellular melanin content compared to the control group treated only with α-MSH” value [4] was “decreased melanin content”. For the same compound, the “intracellular melanin content compared to the control group treated only with α-MSH” value [4] was “decreased melanin content” and the inhibition at 10 ppm ([4]; Mus musculus, 10 ppm, B16 cells with 200 nM α-MSH) was about 30%.

In the case of O=C(O[C@@H]1Cc2c(O)cc(O)cc2O[C@@H]1c1cc(O)c(O)c(O)c1)c1cc(O)c(O)c(O)c1 [EGCG, epigallocatechin gallate, reference compound], the “amount of active ingredient remaining” value ([1]; 1 week later, solubilized formulation with 0.02 wt % active (Comparative Example 1)) is reported as “less than 80 wt %”, the “amount of active ingredient remaining” value [1, 5] is reported as “less than 40 wt %” and the “extracellular melanin content compared to the control group treated only with α-MSH” value [4] is reported as “increased”. The “intracellular melanin content compared to the control group treated only with α-MSH” value [4] was “increased”.
